Tests used:
[1] = system: ischemic stroke rat models; experiment: Ischemic stroke rat model (MCAO 2 h, reperfusion 24 h); type: in vivo, SD rats; details: telaprevir 60 mg/kg after 2 hours of ischemia and 1 hour of reperfusion
Experimental: Experimental animals: Healthy male SD rats weighing 250-300 g. The experimental animals were raised for one week in an environment with a temperature of 25° C., a relative humidity of 60%, free drinking water, and timed and quantified feeding, and then administered according to the requirements of each experimental group.
Method for building an ischemic stroke rat model: A cerebral ischemia/reperfusion rat model was prepared by a middle cerebral artery occlusion (MCAO) method. […]
Rat brain TTC staining and infarct volume measurement: After the rat was anesthetized, the brain was quickly taken out, the olfactory bulb and posterior brain were removed, and five coronal brain slices having a thickness of about 2.0 mm were cut from the antiunion, immediately placed in a 1% TTC solution, incubated at 37° C. in dark for 30 minutes, and then soaked and immobilized in a 10% paraformaldehyde solution. […] The infarct area of each brain slice was measured by ImageJ, and an infarct volume of the whole brain was calculated according to a formula: infarct volume=[(sum of front infarct areas of all slices+sum of back infarct areas of all slices)/2]×the thickness of each slice, that is, a sum of infarct volumes of all brain slices. […]
Neurological function scores of rats were detected and cerebral infarct volumes were measured.

H9c2 myocardial cells = experiment: Hypoxia/reoxygenation injury of H9c2 myocardial cells, LDH release; type: cell-based; details: H9c2, hypoxia 8 h / reoxygenation 12 h; telaprevir 10 μM; vs Hypoxia, FIG. 4
Experimental: H9c2 myocardial cells were purchased from the Xiangya Cell Bank of Central South University.
Cell culture method: Following a conventional cell culture method, the above cells were cultured in a DMEM medium (containing 10% of fetal bovine serum). When the cells fused and grew to 80-90%, the cells were digested with a trypsin. After the cells shrank and became round and the intercellular space was obvious, the digestion was immediately terminated with a medium, the cells were dispersed and blown evenly into a single suspension state, passaged in bottles, and cultured in a 37° C. cell incubator containing 5% of CO2. […]
Cell injury was detected by an LDH release rate.
The measurement followed the operating instructions of a commercially available lactate dehydrogenase kit (Shanghai Beyotime Biotechnology Co., Ltd., China). […] The absorbance of the sample was measured at 490 nm. Calculation: LDH release rate of cells (%)=(absorbance of the drug treatment group-absorbance of the control group)/(absorbance of the maximum enzyme release group-absorbance of the control group)×100%. When the absorbance value of each group was calculated, the absorbance value of the background blank control group was first subtracted.

SMILES: CCC[C@H](NC(=O)[C@@H]1[C@H]2CCC[C@H]2CN1C(=O)[C@@H](NC(=O)[C@@H](NC(=O)c1cnccn1)C1CCCCC1)C(C)(C)C)C(=O)C(=O)NC1CC1 [telaprevir]
- neurological impairment symptoms (Longa neurological function score) of rats ([1]; ##P<0.01 vs I/R, FIG. 2B): significantly improve
- cerebral infarct volume of rats (TTC staining) ([1]; vs I/R, FIG. 2A): significantly decreased
- release of LDH in the myocardial cell medium (LDH release rate) (H9c2 myocardial cells): significantly reduce

— US20240335439A1, “USE OF AND METHOD FOR TELAPREVIR IN PREPARATION OF DRUG FOR TREATING AN ISCHEMIA/REPERFUSION INJURY AND CYTOPROTECTIVE DRUG” (THE THIRD XIANGYA HOSPITAL OF CENTRAL SOUTH UNIVERSITY, priority 2021, published 2024)
